# Measurements taken from patent US12704521B2, “On-site rapid quantification of tetrahydrocannabinol” (The General Hospital Corporation, priority 2020, dated 2026).
# Tests used:
# [1] = test system: AuNPAb (THC antibody-coated gold nanoparticles); test: isothermal titration calorimetry of binding to AuNPAb
# [2] = EPOCH test of oral fluid samples from cannabis users; type: in vivo, human
# Source text: Informed consent was obtained from all subjects (cannabis smoker […]). Cannabis users were asked to take saliva samples right after cannabis smoking. Specifically, they were instructed to take a disposable swab (diameter, 1 cm; length, 1.5 cm) into the mouth and roll it for about one minute. The swab was then placed into the sample processing kit. Control samples were collected in the same manner from volunteers who self-declared no history of cannabis use. For the time-course monitoring, three cannabis smokers collected saliva samples hourly after their last smoking. Cylindrical saliva swabs were purchased (SalivaBio Oral Swab, Salimetrics, USA). These swabs were cut in the middle of their height to fit into the sample processing kit. Each halved swab collected about 0.5 mL of saliva.
# Next, EPOCH was used for onsite THC detection. Oral fluid samples from recreational cannabis users (40 cannabis smokers and three THC jelly users) were collected within 10 minutes of product consumption and then tested. As a control, oral fluid samples were also assessed from non-cannabis users (13 traditional tobacco smokers and 30 non-smokers) without a history of cannabis use. […] We observed no significant difference between male and female subjects in any of the cohorts (P>0.05, two-sided Mann-Whitney test; FIG. 5C).
# We also monitored how THC levels changed over time after cannabis smoking. In this case, oral fluid samples were collected hourly after the inhalation and subjected to the EPOCH tests.
structure (smiles),measurement,setting,value
"CCCCCc1cc(O)c2c(c1)OC(C)(C)[C@@H]1CCC(C)=C[C@@H]21 [THC, Δ^9-tetrahydrocannabinol]",association constant Ka with AuNPAb,[1],0.074 nM⁻¹
same,oral THC concentration in all cannabis-user samples,"[2]; 43 cannabis users shortly after consumption, versus regulatory guideline",> 1 ng/mL
same,half-life of THC in saliva,"[2]; after cannabis smoking, hourly samples, three users, single-phase exponential decay",1.4 h
same,oral THC concentration (average/median),"[2]; cannabis smokers, oral fluid collected within 10 minutes of consumption",478 ng/mL
same,half-life,"[2]; human, saliva, inhaled, after cannabis smoking, hourly samples, three users, single-phase exponential decay, read-out: half-life of THC in saliva (converted)",1.4 h
same,concentration at 6 h,"[2]; human, saliva, po, six hours after cannabis smoking, read-out: oral THC level",> 1 ng/mL
